From paper PMC9230201, “Sustained Consumption of a Decaffeinated Green Coffee Nutraceutical Has Limited Effects on Phenolic Metabolism and Bioavailability in Overweight/Obese Subjects” (Nutrients, 2022)

Legend:
[1] = Urinary excretion of phenolic metabolites after intake of the GCPE nutraceutical; details: for Cumulative urinary excretion, Total 0–24 h / Urinary excretion: urine; for Cumulative urinary excretion, Total 0–24 h: mean ± SEM, n = 9
[2] = Plasma pharmacokinetics of phenolic metabolites after intake of the GCPE nutraceutical (LC-MS-QToF); details: for Cmax: mean ± SEM, n = 9; for AUC(0-t) / Tmax: 300 mg hydroxycinnamic acids; for AUC(0-t): AUC0–24h; for Tmax: Tmax (h) or Range
[3] = Fecal excretion of phenolic metabolites after intake of the GCPE nutraceutical; details: feces
[4] = human, oral, week 0, first peak where biphasic
[5] = human, oral, week 8, first peak where biphasic
[6] = human, oral, 300 mg, Cmax, week 0, GCPE nutraceutical with 300 mg hydroxycinnamic acids
[7] = human, oral, 300 mg, Cmax, week 8, GCPE nutraceutical with 300 mg hydroxycinnamic acids

Structure (SMILES) | Cumulative urinary excretion, Total 0–24 h ([1]; week 0) [µmol] | Cumulative urinary excretion, Total 0–24 h ([1]; week 8) [µmol] | Amount excreted in urine, 0- 3 h ([1]; week 0, interval 0–3 h) [µmol] | Amount excreted in urine, 3-6 h ([1]; week 0, interval 3–6 h) [µmol] | Amount excreted in urine, 6-9 h ([1]; week 0, interval 6–9 h) [µmol] | Amount excreted in urine, 9-11 h ([1]; week 0, interval 9–11 h) [µmol] | Amount excreted in urine, 11-24 h ([1]; week 0, interval 11–24 h) [µmol] | Amount excreted in urine, 0- 3 h ([1]; week 8, interval 0–3 h) [µmol] | Amount excreted in urine, 3-6 h ([1]; week 8, interval 3–6 h) [µmol] | Amount excreted in urine, 6-9 h ([1]; week 8, interval 6–9 h) [µmol] | Amount excreted in urine, 9-11 h ([1]; week 8, interval 9–11 h) [µmol] | Amount excreted in urine, 11-24 h ([1]; week 8, interval 11–24 h) [µmol] | Amount of fecal metabolite excreted at 0 h ([3]; week 0, mean ± SEM, n = 9) [µmol/g] | Amount of fecal metabolite excreted at 0 h ([3]; week 8) [µmol/g] | Amount of fecal metabolite excreted at 24 h ([3]; week 0) [µmol/g] | Amount of fecal metabolite excreted at 24 h ([3]; week 8) [µmol/g] | AUC(0-t) ([2]; human, oral, week 0) [µM·h] | AUC(0-t) ([2]; human, oral, week 8) [µM·h] | Tmax [2, 4] [h] | Tmax [2, 5] [h] | further results
COc1cc(CC(=O)O)ccc1O [4′-Hydroxy-3′-methoxyphenylacetic acid] | 13.2 ± 0.9 | 12 ± 1 | 1.3 ± 0.2 | 0.9 ± 0.2 | 0.9 ± 0.2 | 0.7 ± 0.1 | 3.6 ± 0.3 | 1.5 ± 0.2 | 0.8 ± 0.1 | 1 ± 0.2 | 0.68 ± 0.15 | 2.9 ± 0.7 | 0.007 ± 0.005 | 0.0006 ± 0.0006 | 0.02 ± 0.01 | 0.003 ± 0.003 | – | – | – | – | AUC0–24h ([2]; week 0): 1.4 ± 0.9 µM/min; Cmax ([2]; week 0, GCPE nutraceutical with 300 mg hydroxycinnamic acids): 140 ± 60 nM; Tmax (h) or Range ([2]; week 0, first peak where biphasic): 7 ± 4 h; AUC0–24h ([2]; week 8): 1.5 ± 0.8 µM/min; Cmax ([2]; week 8, GCPE nutraceutical with 300 mg hydroxycinnamic acids): 120 ± 50 nM; Tmax (h) or Range ([2]; week 8, first peak where biphasic): 4 ± 3 h
COc1cc(C(=O)O)ccc1O [4-Hydroxy-3-methoxybenzoic acid] | – | – | – | – | – | – | – | – | – | – | – | – | 0.06 ± 0.03 | 0.006 ± 0.006 | – | – | 9 ± 2 | 14 ± 4 | 7 ± 3 | 7 ± 2 | Cmax [2, 6]: 1100 ± 200 nM; Cmax [2, 7]: 1600 ± 400 nM
O=C(O)c1cccc(O)c1 [3-Hydroxybenzoic acid] | 0.91 ± 0.07 | 1.0 ± 0.1 | 0.09 ± 0.02 | 0.05 ± 0.01 | 0.08 ± 0.02 | 0.064 ± 0.009 | 0.26 ± 0.02 | 0.1 ± 0.01 | 0.06 ± 0.01 | 0.11 ± 0.02 | 0.07 ± 0.02 | 0.19 ± 0.04 | 0.03 ± 0.02 | 0.020 ± 0.008 | 0.03 ± 0.01 | 0.020 ± 0.007 | 0.7 ± 0.3 | 0.8 ± 0.3 | 8 ± 1 | 4 ± 1 | Cmax [2, 6]: 80 ± 20 nM; Cmax [2, 7]: 100 ± 30 nM
O=C(O)CCc1ccc(O)c(O)c1 [DHCA, 3-(3′,4′-Dihydroxyphenyl)propanoic acid] | 16 ± 2 | 31 ± 5 | 0.5 ± 0.1 | 0.37 ± 0.09 | 2.3 ± 0.8 | 2.7 ± 0.6 | 7 ± 1 | 1 ± 0.4 | 1.4 ± 0.4 | 3.8 ± 0.9 | 3.1 ± 0.8 | 6 ± 2 | 0.011 ± 0.007 | 0.005 ± 0.002 | 0.008 ± 0.006 | 0.0001 ± 0.0001 | 2 ± 0.6 | 2.1 ± 0.5 | 10.2 ± 0.3 | 9.4 ± 0.5 | Urinary excretion ([1]; week 0): 16 µmol/24 h; Urinary excretion ([1]; week 8): 31 µmol/24 h; Amount excreted in urine, TOTAL ([1]; week 0, Table S5 total): 16 ± 2 µmol; Amount excreted in urine, 0 h ([1]; week 8, 0 h (before intake on sampling day)): 15 ± 4 µmol; Amount excreted in urine, TOTAL ([1]; week 8, Table S6 total): 31 ± 5 µmol; Cmax [2, 6]: 220 ± 60 nM; Cmax [2, 7]: 220 ± 50 nM
